What was measured:
Type in all cases: cell-based, Clostridium Difficile
[1] = system: C. Difficile NCTC 11204 and ribotype 027 (R20291) spores; test: Germination tests, heat shock method (heat vs ice); conditions: 2% (w/v) germination solution, 1 hour, strains 11204 and 027; for >1 log reduction on heat: then 70° C. for 20 minutes, reduction suggests germinant; for >1 log reduction on ice: control samples kept on ice, reduction suggests sporicide or germinant/antimicrobial
Method: Many of the synthesised compounds were tested for their germinating and antimicrobial abilities against C. Difficile. Due to the insolubility of some of the compounds in water, DMSO, ethanol and methanol were used to dissolve the compounds.
The C. Difficile reference strain, NCTC 11204 and C. Difficile ribotype 027 (R20291) (Anaerobic Reference Laboratory, Cardiff, UK) were used during testing.
Spore suspensions of C. Difficile were prepared following the method proposed by Shetty et al. (1999). Briefly, Columbia base agar plates were inoculated with the relevant strain of C. Difficile and incubated for 72 hours anaerobically at 37° C. (MiniMACS anaerobic cabinet, Don Whitley Scientific, Shipley, UK). Then, the plates were removed and left or 24 hours in aerobic conditions at room temperature. Colonies were then harvested into 20 mL of 50% (w/v) ethanol and 50% saline, and vortex thoroughly. These were stored at 4° C. until needed.
All experiments were performed in triplicate using spore suspensions containing 1×10^7 CFU mL^−1 spores of C. difficile NCTC 11204 and ribotype 027.
Before use, 1 mL of spores were centrifuged at 13000 rpm for 10 minutes (Spectrafuge 24D; Labnet, Woodbridge, USA). The supernatant was discarded, and the pellet resuspended in 1 mL sterile distilled water and vortex mixed thoroughly.
Germination solutions were prepared using 2% (w/v) of the compound in diluent (DMSO, ethanol, methanol, water) plus double strength thioglycollate medium (Oxoid, UK).
For the heat shock method, 100 μl spores were exposed to 100 μl of the germination solution and incubated at room temperature in air for 1 hour. The entire 200 μl sample was then added to 800 μl sterile distilled water to dilute out the germinant to ineffective concentrations. Samples were placed on heat at 70° C. for 20 minutes to eliminate any germinated, metabolically active spores. Control samples were kept on ice. Solutions were then diluted accordingly using sterile distilled water, and cultured onto fastidious anaerobic agar (Lab M, Bury, UK), supplemented with 0.1% (w/v) sodium taurocholate (ST) and 5% (w/v) defibrinated horse blood using the Miles and Misra method (Miles et al., 1938). These were then incubated anaerobically for 48 hours at 37° C. (MiniMACS anaerobic cabinet, Don Whitley Scientific, Shipley, UK) and the CFU mL^−1 counted.
The results from the table above show the compounds that gave a 1 log reduction or more between the initial spore count and the spore count after the heat and ice treatment. […] Due to the nature of this test, it is difficult to distinguish between the two.

C. Difficile spores [2] = test: Germination and antimicrobial efficiency (dual activity) of compound 129 in HDPE; conditions: for % Reduction 2 hours / Log Reduction 2 hours / % Reduction 24 hours / Log Reduction 24 hours / % Reduction 96 hours / Log Reduction 96 hours: HDPE polymer
Source text: Reactively processed HDPE polymer containing compound 129 is shown to have the ability to both germinate the spores of C. […] This exemplifies, therefore, the dual action of compound 129 and its efficacy both as a germinant and an antimicrobial.

C. Difficile spores [3] = test: Germination activity of compound 129 reactively processed with HDPE after subsequent exposure to ethanol; conditions: for % Reduction 2 hours / Log Reduction 2 hours / % Reduction 24 hours / Log Reduction 24 hours / % Reduction 96 hours / Log Reduction 96 hours: HDPE polymer film, after ethanol exposure
Method: HDPE (high density polyethylene) samples containing the modified bile salt compound 129, reactively processed under different compression moulding conditions, were tested to determine the germination activity. […] Difficile spores. This confirms the germination activity of compound 129 when incorporated into HDPE by reactive processing.

C[C@H](CCC(=O)NCCC[N+](C)(C)c1ccc(C(=O)c2ccccc2)cc1)[C@H]1CC[C@H]2[C@@H]3[C@H](O)C[C@@H]4C[C@H](O)CC[C@]4(C)[C@H]3C[C@H](O)[C@]12C.[Br-] [2/148]
>1 log reduction on heat [1]: Yes (027)

C[C@H](CCC(=O)NCC[N+]1(c2ccc(C(=O)c3ccccc3)cc2)CCCC1)[C@H]1CC[C@H]2[C@@H]3[C@H](O)C[C@@H]4C[C@H](O)CC[C@]4(C)[C@H]3C[C@H](O)[C@]12C.[Br-] [2/150]
>1 log reduction on ice [1]: Yes (11204)

C[C@H](CCC(=O)NCc1ccccc1)[C@H]1CC[C@H]2[C@@H]3[C@H](O)C[C@@H]4C[C@H](O)CC[C@]4(C)[C@H]3C[C@H](O)[C@]12C [Compound 2, cholic acid benzyl amide]
>1 log reduction on ice [1]: Yes (11204)

CCCCN(CCCC)CCCNC(=O)CC[C@@H](C)[C@H]1CC[C@H]2[C@@H]3[C@H](O)C[C@@H]4C[C@H](O)CC[C@]4(C)[C@H]3C[C@H](O)[C@]12C [Compound 7]
>1 log reduction on ice [1]: Yes (11204)
>1 log reduction on heat [1]: Yes (11204)

C[C@H](CCC(=O)NCCN1CCCC1)[C@H]1CC[C@H]2[C@@H]3[C@H](O)C[C@@H]4C[C@H](O)CC[C@]4(C)[C@H]3C[C@H](O)[C@]12C [Compound 10]
>1 log reduction on heat [1]: Yes (11204)

CCCCCCCCCCCCCCCCCCNC(=O)CC[C@@H](C)[C@H]1CC[C@H]2[C@@H]3[C@H](O)C[C@@H]4C[C@H](O)CC[C@]4(C)[C@H]3C[C@H](O)[C@]12C [Compound 16]
>1 log reduction on heat [1]: Yes (11204 and 027)

CCCCCC[N+](C)(C)CCCNC(=O)CC[C@@H](C)[C@H]1CCC2C3C(C[C@H](O)[C@@]21C)[C@@]1(C)CC[C@@H](O)CC1C[C@H]3O (stereo partly shown) [Compound 29]
>1 log reduction on heat [1]: yes

C=CC[N+](C)(C)CCCNC(=O)CC[C@@H](C)[C@H]1CCC2C3C(C[C@H](O)[C@@]21C)[C@@]1(C)CC[C@@H](O)CC1C[C@H]3O.[Br-] (stereo partly shown) [Compound 34, 3-cholanamidopropyl-allyl-dimethyl-ammonium;bromide]
>1 log reduction on heat [1]: yes

CCC[N+]1(CCNC(=O)CC[C@@H](C)[C@H]2CC[C@H]3[C@@H]4[C@H](O)C[C@@H]5C[C@H](O)CC[C@]5(C)[C@H]4C[C@H](O)[C@]23C)CCCC1.[I-] [Compound 45]
>1 log reduction on ice [1]: yes
>1 log reduction on heat [1]: yes

C[C@H](CCC(=O)NCC[N+]1(Cc2ccccc2)CCCC1)[C@H]1CC[C@H]2[C@@H]3[C@H](O)C[C@@H]4C[C@H](O)CC[C@]4(C)[C@H]3C[C@H](O)[C@]12C [Compound 50]
>1 log reduction on ice [1]: yes
>1 log reduction on heat [1]: yes

C=Cc1ccc(C[N+](C)(C)CCNC(=O)CC[C@@H](C)[C@H]2CCC3C4CCC5C[C@H](O)CC[C@]5(C)C4CC[C@@]32C)cc1.[Cl-] (stereo partly drawn) [Compound 129, 2-[[(4R)-4-[(3R,10S,13R,17R)-3-hydroxy-10,13-dimethyl-2,3,4,5,6,7,8,9,11,-12,14,15,16,17-tetradecahydro-1H-cyclopenta[a]phenanthren-17-yl]pentanoyl]-amino]ethyl-dimethyl-[(4-vinylphenyl)methyl]ammonium chloride]
% Reduction 2 hours (C. Difficile spores [2]; 3% T101 165° C.): 96.9%
Log Reduction 2 hours (C. Difficile spores [2]; 3% T101 165° C.): 1.563 Log
% Reduction 24 hours (C. Difficile spores [2]; 3% T101 165° C.): 86.9%
Log Reduction 24 hours (C. Difficile spores [2]; 3% T101 165° C.): 0.940 Log
% Reduction 96 hours (C. Difficile spores [2]; 3% T101 165° C.): 78.0%
Log Reduction 96 hours (C. Difficile spores [2]; 3% T101 165° C.): 0.714 Log
% Reduction 2 hours (C. Difficile spores [2]; 3% T101 170° C.): 79.6%
Log Reduction 2 hours (C. Difficile spores [2]; 3% T101 170° C.): 0.747 Log
% Reduction 24 hours (C. Difficile spores [2]; 3% T101 170° C.): 75.4%
Log Reduction 24 hours (C. Difficile spores [2]; 3% T101 170° C.): 0.666 Log
% Reduction 96 hours (C. Difficile spores [2]; 3% T101 170° C.): 88.5%
Log Reduction 96 hours (C. Difficile spores [2]; 3% T101 170° C.): 0.998 Log
% Reduction 2 hours (C. Difficile spores [2]; 6% T101 160° C.): 0.0%
Log Reduction 2 hours (C. Difficile spores [2]; 6% T101 160° C.): 0.057 Log
% Reduction 24 hours (C. Difficile spores [2]; 6% T101 160° C.): 44.8%
Log Reduction 24 hours (C. Difficile spores [2]; 6% T101 160° C.): 0.315 Log
% Reduction 96 hours (C. Difficile spores [2]; 6% T101 160° C.): 86.8%
Log Reduction 96 hours (C. Difficile spores [2]; 6% T101 160° C.): 0.936 Log
spore reduction (C. Difficile spores [2]; reactive processing of the polymer at 170° C.): 79.6%
reduction of the subsequent metabolically active bio-load after spore germination (C. Difficile spores [2]; reactively processed HDPE polymer containing compound 129): 96.9%
germination activity, lower vs higher processing temperature (C. Difficile spores [3]; 3% films, samples processed at the lower temperature (165° C. vs 170° C.), after 24 and 46 hours): slightly higher level of germination activity
% Reduction 2 hours (C. Difficile spores [3]; 3% T101 160° C.): 79.8%
Log Reduction 2 hours (C. Difficile spores [3]; 3% T101 160° C.): 0.752 Log
% Reduction 24 hours (C. Difficile spores [3]; 3% T101 160° C.): 67.6%
Log Reduction 24 hours (C. Difficile spores [3]; 3% T101 160° C.): 0.546 Log
% Reduction 96 hours (C. Difficile spores [3]; 3% T101 160° C.): 69.8%
Log Reduction 96 hours (C. Difficile spores [3]; 3% T101 160° C.): 0.577 Log
% Reduction 2 hours (C. Difficile spores [3]; 3% T101 165° C.): 99.2%
Log Reduction 2 hours (C. Difficile spores [3]; 3% T101 165° C.): 2.165 Log
% Reduction 24 hours (C. Difficile spores [3]; 3% T101 165° C.): 97.1%
Log Reduction 24 hours (C. Difficile spores [3]; 3% T101 165° C.): 1.598 Log
% Reduction 96 hours (C. Difficile spores [3]; 3% T101 165° C.): 92.0%
Log Reduction 96 hours (C. Difficile spores [3]; 3% T101 165° C.): 1.154 Log
% Reduction 2 hours (C. Difficile spores [3]; 3% T101 170° C.): 99.2%
Log Reduction 2 hours (C. Difficile spores [3]; 3% T101 170° C.): 2.165 Log
% Reduction 24 hours (C. Difficile spores [3]; 3% T101 170° C.): 87.8%
Log Reduction 24 hours (C. Difficile spores [3]; 3% T101 170° C.): 0.971 Log
% Reduction 96 hours (C. Difficile spores [3]; 3% T101 170° C.): 82.0%
Log Reduction 96 hours (C. Difficile spores [3]; 3% T101 170° C.): 0.802 Log
germination activity (C. Difficile spores [3]; HDPE samples with a higher amount of compound 129 (6%)): did not perform well
Log reduction compared to the HDPE/peroxide T101 control (C. Difficile spores [3]; polymer film containing 3% of compound 129, prepared both at 165° C. and 170° C., at 2 hours): 2.2 Log
reduction in C. Difficile spores (C. Difficile spores [3]; prepared at 165° C./170° C., following subsequent exposure to ethanol): 99.2%
